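Five concentrations, 48 hours, 96-well plates. GI50: concentration for 50% inhibition of growth.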 Calls of active or inactive are those of the source. Cut-off read from the data, not from the text of the source: active = GI50 up to about 1.1 µM and inactive = higher.
How the values were obtained:
Assay in all cases: growth of human tumour cells (NCI), 48 h
786-0 = test system: 786-0
A549 = test system: A549
ACHN = test system: ACHN
CAKI-1 = test system: CAKI-1
CCRF-CEM = test system: CCRF-CEM
COLO 205 = test system: COLO 205
DU-145 = test system: DU-145
HCT-116 = test system: HCT-116
HCT-15 = test system: HCT-15
HL-60 = test system: HL-60
HOP-62 = test system: HOP-62
HOP-92 = test system: HOP-92
HT-29 = test system: HT-29
Hs-578T = test system: Hs-578T
IGROV-1 = test system: IGROV-1
K562 = test system: K562
KM12 = test system: KM12
LOX IMVI = test system: LOX IMVI
M14 = test system: M14
MCF7 = test system: MCF7
MDA-MB-231 = test system: MDA-MB-231
MDA-MB-435 = test system: MDA-MB-435
MDA-N = test system: MDA-N
MOLT-4 = test system: MOLT-4
NCI-H226 = test system: NCI-H226
NCI-H23 = test system: NCI-H23
NCI-H460 = test system: NCI-H460
NCI-H522 = test system: NCI-H522
NCI/ADR-RES = test system: NCI/ADR-RES
OVCAR-3 = test system: OVCAR-3
OVCAR-5 = test system: OVCAR-5
OVCAR-8 = test system: OVCAR-8
PC-3 = test system: PC-3
RPMI-8226 = test system: RPMI-8226
RXF 393 = test system: RXF 393
SF-268 = test system: SF-268
SF-295 = test system: SF-295
SF-539 = test system: SF-539
SK-MEL-2 = test system: SK-MEL-2
SK-MEL-5 = test system: SK-MEL-5
SK-OV-3 = test system: SK-OV-3
SN12C = test system: SN12C
SNB-19 = test system: SNB-19
SR = test system: SR
SW-620 = test system: SW-620
T47D = test system: T47D
U-251 = test system: U-251
UACC-257 = test system: UACC-257
UACC-62 = test system: UACC-62
UO-31 = test system: UO-31
A498 = test system: A498
EKVX = test system: EKVX
HCC 2998 = test system: HCC 2998
Malme-3M = test system: Malme-3M
OVCAR-4 = test system: OVCAR-4
SK-MEL-28 = test system: SK-MEL-28
SNB-75 = test system: SNB-75
TK-10 = test system: TK-10

With O=c1cc(-c2ccc(O)cc2)n(C2CC2)c2ccccc12 the GI50 (786-0) was 4.06 µM (inactive), the GI50 (A549) was 4.52 µM (inactive) and the GI50 (ACHN) was 2.47 µM (inactive). For the same compound, the GI50 (CAKI-1) was 4.42 µM (inactive), the GI50 (CCRF-CEM) was 7.16 µM (inactive) and the GI50 (COLO 205) was 2.64 µM (inactive). The GI50 (DU-145) was 3.64 µM (inactive), the GI50 (HCT-116) was 2.75 µM (inactive) and the GI50 (HCT-15) was 4.08 µM. For the same compound, the GI50 (HL-60) was 19.7 µM (inactive), the GI50 (HOP-62) was 4.41 µM (inactive) and the GI50 (HOP-92) was 3.52 µM (inactive). The GI50 (HT-29) was 1.57 µM (inactive), the GI50 (Hs-578T) was 5.41 µM (inactive) and the GI50 (IGROV-1) was 5.3 µM (inactive). For the same compound, the GI50 (K562) was 7.87 µM (inactive), the GI50 (KM12) was 3.45 µM (inactive) and the GI50 (LOX IMVI) was 4.67 µM (inactive). The GI50 (M14) was 6.89 µM (inactive), the GI50 (MCF7) was 4.66 µM (inactive) and the GI50 (MDA-MB-231) was 8.47 µM (inactive). For the same compound, the GI50 (MDA-MB-435) was 4.83 µM (inactive), the GI50 (MDA-N) was 10.6 µM (inactive) and the GI50 (MOLT-4) was 50.9 µM (inactive). The GI50 (NCI-H226) was 2.67 µM (inactive), the GI50 (NCI-H23) was 8.73 µM (inactive) and the GI50 (NCI-H460) was 3.76 µM (inactive). For the same compound, the GI50 (NCI-H522) was 3.18 µM (inactive), the GI50 (NCI/ADR-RES) was 11.9 µM (inactive) and the GI50 (OVCAR-3) was 4.23 µM (inactive). For the same compound, the GI50 (OVCAR-5) was 3.64 µM (inactive), the GI50 (OVCAR-8) was 5.31 µM (inactive) and the GI50 (PC-3) was 9.44 µM (inactive). For the same compound, the GI50 (RPMI-8226) was 3.35 µM (inactive), the GI50 (RXF 393) was 2.82 µM (inactive) and the GI50 (SF-268) was 7.29 µM (inactive). The GI50 (SF-295) was 3.46 µM (inactive), the GI50 (SF-539) was 5.38 µM (inactive) and the GI50 (SK-MEL-2) was 2.77 µM (inactive). The GI50 (SK-MEL-5) was 6.4 µM (inactive), the GI50 (SK-OV-3) was 9.08 µM (inactive) and the GI50 (SN12C) was 6.01 µM (inactive). For the same compound, the GI50 (SNB-19) was 5.08 µM (inactive), the GI50 (SR) was 7.43 µM (inactive) and the GI50 (SW-620) was 5.05 µM (inactive). The GI50 (T47D) was 3.96 µM (inactive), the GI50 (U-251) was 5.31 µM (inactive) and the GI50 (UACC-257) was 10.2 µM (inactive). The GI50 (UACC-62) was 3.91 µM (inactive) and the GI50 (UO-31) was 4.02 µM (inactive).
[O-][n+]1onc2c1/C(=N/O)CCC2 was tested, and the GI50 (786-0) was > 100 µM (inactive), the GI50 (A498) was > 100 µM (inactive) and the GI50 (A549) was > 100 µM (inactive). The GI50 (ACHN) was > 100 µM (inactive), the GI50 (CAKI-1) was > 100 µM (inactive) and the GI50 (CCRF-CEM) was > 100 µM (inactive). For the same compound, the GI50 (COLO 205) was > 100 µM (inactive), the GI50 (DU-145) was > 100 µM (inactive) and the GI50 (EKVX) was > 100 µM (inactive). For the same compound, the GI50 (HCC 2998) was > 100 µM (inactive), the GI50 (HCT-116) was > 100 µM (inactive) and the GI50 (HCT-15) was over 100 µM. For the same compound, the GI50 (HL-60) was > 100 µM (inactive), the GI50 (HOP-62) was > 100 µM (inactive) and the GI50 (HT-29) was > 100 µM (inactive). For the same compound, the GI50 (Hs-578T) was > 100 µM (inactive), the GI50 (IGROV-1) was > 100 µM (inactive) and the GI50 (K562) was > 100 µM (inactive). For the same compound, the GI50 (KM12) was > 100 µM (inactive), the GI50 (LOX IMVI) was > 100 µM (inactive) and the GI50 (M14) was > 100 µM (inactive). The GI50 (MCF7) was > 100 µM (inactive), the GI50 (MDA-MB-231) was > 100 µM (inactive) and the GI50 (MDA-MB-435) was > 100 µM (inactive). For the same compound, the GI50 (MDA-N) was > 100 µM (inactive), the GI50 (MOLT-4) was > 100 µM (inactive) and the GI50 (Malme-3M) was > 100 µM (inactive). For the same compound, the GI50 (NCI-H226) was > 100 µM (inactive), the GI50 (NCI-H23) was > 100 µM (inactive) and the GI50 (NCI-H460) was > 100 µM (inactive). For the same compound, the GI50 (NCI-H522) was > 100 µM (inactive), the GI50 (NCI/ADR-RES) was > 100 µM (inactive) and the GI50 (OVCAR-3) was > 100 µM (inactive). For the same compound, the GI50 (OVCAR-4) was > 100 µM (inactive), the GI50 (OVCAR-5) was > 100 µM (inactive) and the GI50 (OVCAR-8) was > 100 µM (inactive). For the same compound, the GI50 (PC-3) was > 100 µM (inactive), the GI50 (RPMI-8226) was > 100 µM (inactive) and the GI50 (RXF 393) was > 100 µM (inactive). The GI50 (SF-268) was > 100 µM (inactive), the GI50 (SF-295) was > 100 µM (inactive) and the GI50 (SF-539) was > 100 µM (inactive). The GI50 (SK-MEL-28) was > 100 µM (inactive), the GI50 (SK-MEL-2) was > 100 µM (inactive) and the GI50 (SK-MEL-5) was > 100 µM (inactive). For the same compound, the GI50 (SK-OV-3) was > 100 µM (inactive), the GI50 (SN12C) was > 100 µM (inactive) and the GI50 (SNB-19) was > 100 µM (inactive). The GI50 (SNB-75) was > 100 µM (inactive), the GI50 (SR) was > 100 µM (inactive) and the GI50 (SW-620) was > 100 µM (inactive). For the same compound, the GI50 (T47D) was > 100 µM (inactive), the GI50 (TK-10) was > 100 µM (inactive) and the GI50 (UACC-257) was > 100 µM (inactive). For the same compound, the GI50 (UACC-62) was > 100 µM (inactive) and the GI50 (UO-31) was > 100 µM (inactive).
